Reference: ChEMBL document CHEMBL1201862, “PubChem BioAssay data set” (2004)
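How tested: cells in 96-well plates exposed to compound for 48 hours at five concentrations. Abbreviation: GI50, concentration required for 50% inhibition of growth.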 Calls of active or inactive are those of the source. Rule as the data show it: active = GI50 up to about 1.1 µM and inactive = higher.

How the values were obtained:
Experiment in all cases: inhibition of tumour cell growth, NCI panel, 48 h
[1] = tested on: UO-31
[2] = tested on: U-251
[3] = tested on: MCF7
[4] = tested on: A549
[5] = tested on: OVCAR-5
[6] = tested on: HCT-15
[7] = tested on: NCI-H460
[8] = tested on: MDA-MB-435
[9] = tested on: K562
[10] = tested on: CCRF-CEM
[11] = tested on: RPMI-8226
[12] = tested on: MDA-MB-231
[13] = tested on: LOX IMVI
[14] = tested on: SNB-75
[15] = tested on: SR
[16] = tested on: OVCAR-4
[17] = tested on: NCI-H23
[18] = tested on: BT-549
[19] = tested on: COLO 205
[20] = tested on: MOLT-4
[21] = tested on: HOP-62
[22] = tested on: A498
[23] = tested on: SK-MEL-28
[24] = tested on: T47D
[25] = tested on: SK-MEL-2
[26] = tested on: SN12C
[27] = tested on: SNB-19
[28] = tested on: NCI/ADR-RES
[29] = tested on: SK-MEL-5
[30] = tested on: DU-145
[31] = tested on: PC-3
[32] = tested on: HCT-116
[33] = tested on: HT-29
[34] = tested on: EKVX
[35] = tested on: IGROV-1
[36] = tested on: HOP-92
[37] = tested on: M14
[38] = tested on: KM12
[39] = tested on: SW-620
[40] = tested on: UACC-257
[41] = tested on: HCC 2998
[42] = tested on: CAKI-1
[43] = tested on: SF-539
[44] = tested on: NCI-H522
[45] = tested on: Hs-578T
[46] = tested on: OVCAR-8
[47] = tested on: Malme-3M
[48] = tested on: SF-268
[49] = tested on: TK-10
[50] = tested on: UACC-62
[51] = tested on: MDA-N
[52] = tested on: SF-295
[53] = tested on: HL-60
[54] = tested on: SK-OV-3
[55] = tested on: 786-0
[56] = tested on: RXF 393
[57] = tested on: OVCAR-3
[58] = tested on: ACHN
[59] = tested on: NCI-H226

CC1C(c2ccc3c(c2)OCO3)c2cc3c(cc2OC1N1CCOCC1)OCO3 (configuration not stated)
GI50 [1]: 18.1 µM (inactive)
GI50 [2]: 19.1 µM (inactive)
GI50 [3]: 20.8 µM (inactive)
GI50 [4]: 26.6 µM (inactive)
GI50 [5]: 46.2 µM (inactive)
GI50 [6]: 19.3 µM
GI50 [7]: 29.2 µM (inactive)
GI50 [8]: 5.6 µM (inactive)
GI50 [9]: 7.41 µM (inactive)
GI50 [10]: 19 µM (inactive)
GI50 [11]: 21 µM (inactive)
GI50 [12]: 18.4 µM (inactive)
GI50 [13]: 20.9 µM (inactive)
GI50 [14]: 32.8 µM (inactive)
GI50 [15]: 10.6 µM (inactive)
GI50 [16]: 28.8 µM (inactive)
GI50 [17]: 26.5 µM (inactive)
GI50 [18]: 20 µM (inactive)
GI50 [19]: 21.1 µM (inactive)
GI50 [20]: 16.7 µM (inactive)
GI50 [21]: 34.4 µM (inactive)
GI50 [22]: 22.4 µM (inactive)
GI50 [23]: 23.7 µM (inactive)
GI50 [24]: 13.6 µM (inactive)
GI50 [25]: 19.9 µM (inactive)
GI50 [26]: 33.1 µM (inactive)
GI50 [27]: 16.4 µM (inactive)
GI50 [28]: 15.8 µM (inactive)
GI50 [29]: 17 µM (inactive)
GI50 [30]: 27.8 µM (inactive)
GI50 [31]: 25.9 µM (inactive)
GI50 [32]: 16 µM (inactive)
GI50 [33]: 28.7 µM (inactive)
GI50 [34]: 37.3 µM (inactive)
GI50 [35]: 28 µM (inactive)
GI50 [36]: 16.5 µM (inactive)
GI50 [37]: 24.7 µM (inactive)
GI50 [38]: 20.5 µM (inactive)
GI50 [39]: 25.9 µM (inactive)
GI50 [40]: 35.4 µM (inactive)
GI50 [41]: 18.2 µM (inactive)
GI50 [42]: 15.2 µM (inactive)
GI50 [43]: 18.3 µM (inactive)
GI50 [44]: 9.04 µM (inactive)
GI50 [45]: 14.1 µM (inactive)
GI50 [46]: 32.5 µM (inactive)
GI50 [47]: 28.8 µM (inactive)
GI50 [48]: 31.3 µM (inactive)
GI50 [49]: 29.1 µM (inactive)
GI50 [50]: 20.3 µM (inactive)
GI50 [51]: 6.28 µM (inactive)
GI50 [52]: 24 µM (inactive)
GI50 [53]: 13.8 µM (inactive)
GI50 [54]: 49.9 µM (inactive)
GI50 [55]: 31.6 µM (inactive)
GI50 [56]: 20.4 µM (inactive)
GI50 [57]: 20 µM (inactive)
GI50 [58]: 32.6 µM (inactive)
GI50 [59]: 22 µM (inactive)

CCN(CC)C(=S)/N=C(\SC(=S)N(CC)CC)c1ccccc1
GI50 [1]: 27 µM (inactive)
GI50 [2]: 58.5 µM (inactive)
GI50 [3]: 3.6 µM (inactive)
GI50 [4]: 20.8 µM (inactive)
GI50 [5]: > 80 µM (inactive)
GI50 [6]: 27.7 µM
GI50 [7]: 6.1 µM (inactive)
GI50 [8]: > 59 µM (inactive)
GI50 [9]: 1.29 µM (inactive)
GI50 [10]: 0.787 µM (active)
GI50 [11]: 2.48 µM (inactive)
GI50 [12]: 5.65 µM (inactive)
GI50 [13]: 15.1 µM (inactive)
GI50 [14]: 24.1 µM (inactive)
GI50 [15]: 0.391 µM (active)
GI50 [16]: 27.3 µM (inactive)
GI50 [17]: 36.9 µM (inactive)
GI50 [18]: > 60.4 µM (inactive)
GI50 [19]: 0.522 µM (active)
GI50 [20]: 18.6 µM (inactive)
GI50 [21]: 29.9 µM (inactive)
GI50 [22]: > 95.3 µM (inactive)
GI50 [23]: 57 µM (inactive)
GI50 [24]: 25.2 µM (inactive)
GI50 [25]: 30.7 µM (inactive)
GI50 [26]: 48.6 µM (inactive)
GI50 [27]: > 94.8 µM (inactive)
GI50 [28]: 35.5 µM (inactive)
GI50 [29]: 0.569 µM (active)
GI50 [30]: 27.9 µM (inactive)
GI50 [31]: 26.9 µM (inactive)
GI50 [32]: 14.6 µM (inactive)
GI50 [33]: 0.392 µM (active)
GI50 [34]: 38.5 µM (inactive)
GI50 [35]: 21.4 µM (inactive)
GI50 [36]: > 100 µM (inactive)
GI50 [37]: 37.5 µM (inactive)
GI50 [38]: 7.96 µM (inactive)
GI50 [39]: > 66.8 µM (inactive)
GI50 [40]: 45.7 µM (inactive)
GI50 [41]: 57.1 µM (inactive)
GI50 [42]: 26.9 µM (inactive)
GI50 [43]: 51.4 µM (inactive)
GI50 [44]: 0.119 µM (active)
GI50 [45]: 35.4 µM (inactive)
GI50 [46]: 56 µM (inactive)
GI50 [47]: 22.4 µM (inactive)
GI50 [48]: 41.6 µM (inactive)
GI50 [49]: > 89.5 µM (inactive)
GI50 [50]: 39.6 µM (inactive)
GI50 [51]: 15.7 µM (inactive)
GI50 [52]: 42.6 µM (inactive)
GI50 [53]: 1.27 µM (inactive)
GI50 [54]: 47.3 µM (inactive)
GI50 [55]: > 65 µM (inactive)
GI50 [56]: > 49.3 µM (inactive)
GI50 [57]: 28.2 µM (inactive)
GI50 [58]: > 68.2 µM (inactive)
GI50 [59]: 28.5 µM (inactive)

CNC(=S)N/N=C/c1cccc(C)n1
GI50 [1]: 20.7 µM (inactive)
GI50 [2]: 26.1 µM (inactive)
GI50 [3]: 38.6 µM (inactive)
GI50 [4]: 39 µM (inactive)
GI50 [5]: 37.8 µM (inactive)
GI50 [6]: 26 µM
GI50 [7]: 19.9 µM (inactive)
GI50 [8]: 45 µM (inactive)
GI50 [9]: 42.8 µM (inactive)
GI50 [10]: 23.4 µM (inactive)
GI50 [11]: > 59.8 µM (inactive)
GI50 [12]: 39.3 µM (inactive)
GI50 [13]: 24.7 µM (inactive)
GI50 [14]: 37.9 µM (inactive)
GI50 [15]: > 41.9 µM (inactive)
GI50 [16]: > 59.7 µM (inactive)
GI50 [17]: 31.4 µM (inactive)
GI50 [18]: 23.5 µM (inactive)
GI50 [19]: 38.2 µM (inactive)
GI50 [20]: 39.8 µM (inactive)
GI50 [21]: 20.7 µM (inactive)
GI50 [22]: 20.7 µM (inactive)
GI50 [23]: 56.5 µM (inactive)
GI50 [24]: 42.8 µM (inactive)
GI50 [25]: 49.1 µM (inactive)
GI50 [26]: 26.4 µM (inactive)
GI50 [27]: 51.9 µM (inactive)
GI50 [28]: 23.8 µM (inactive)
GI50 [29]: 25.1 µM (inactive)
GI50 [30]: 28.8 µM (inactive)
GI50 [31]: 42 µM (inactive)
GI50 [32]: 31.6 µM (inactive)
GI50 [33]: 36 µM (inactive)
GI50 [34]: 46.6 µM (inactive)
GI50 [35]: 44.7 µM (inactive)
GI50 [36]: 55.8 µM (inactive)
GI50 [37]: 21.3 µM (inactive)
GI50 [38]: 61.1 µM (inactive)
GI50 [39]: 49.1 µM (inactive)
GI50 [40]: 32.7 µM (inactive)
GI50 [41]: > 54 µM (inactive)
GI50 [42]: 47.6 µM (inactive)
GI50 [43]: 18.4 µM (inactive)
GI50 [44]: 27.2 µM (inactive)
GI50 [45]: > 91.8 µM (inactive)
GI50 [46]: 23.6 µM (inactive)
GI50 [47]: 37.2 µM (inactive)
GI50 [48]: 25.9 µM (inactive)
GI50 [49]: 32.8 µM (inactive)
GI50 [50]: 23.6 µM (inactive)
GI50 [51]: 42 µM (inactive)
GI50 [52]: 32.7 µM (inactive)
GI50 [53]: > 45.5 µM (inactive)
GI50 [54]: 37.2 µM (inactive)
GI50 [55]: 24.6 µM (inactive)
GI50 [56]: 38.5 µM (inactive)
GI50 [57]: 29.9 µM (inactive)
GI50 [58]: 28.2 µM (inactive)
GI50 [59]: > 50.7 µM (inactive)
